Reference: patent US8304448B2, “Method for the treatment of metabolic disorder containing benzazole derivatives as an active ingredient” (Korea Research Institute of Bioscience and Biotechnology, priority 2006, dated 2012)

Legend:
DGAT = assay: Assay for inhibitory effect on DGAT in cell (intracellular triglyceride production from [14C]acetate in HepG2 cells); assay type: cell-based, human
Procedure: The effect of the benzazole derivatives of Chemical Formula 1 in accordance with the present invention on DGAT was examined with HepG2 cells, hepatic cells derived from the human liver, as follows.
HepG2 cells, purchased from ATCC, were cultured in Eagle's minimum essential medium (MEM), 2 mM L-glutamine, with Earle's balanced salt solution (BSS) adjusted to contain, 1.5 g/L sodium bicarbonate, 0.1 mM non-essential amino acids and 1 mM sodium pyruvate, supplemented with 10% fetal bovine serum (FBS) and 1% antibiotics (100 U/ml penicillin and 100 µg/ml streptomycin) at 37° C. in a 5% CO2 incubator.
Intracellular DGAT activity was represented by the amount of triglycerides produced in the cultured HepG2 cells while the compounds (4, 8, 10, 22, 24, 25, 26, 39 and 31) of Chemical Formula 1 were assayed for inhibitory activity against DGAT by measuring the change in intracellular triglyceride production after the addition thereof.
Cells were plated at a density of 1×10^6 cell/ml per well into 24-well plates and incubated for 24 hours. Then, the medium was exchanged with FBS-free MEM and pre-treated with samples for 1 hour. Thereafter, 0.2 mCi of [^14C]acetate (Amersham) was added as a substrate to the cells, followed by incubation for 1 hour. The production of triglyceride was catalyzed by DGAT so that DGAT activity was determined by the amount of the triglyceride product, which could be measured by radioactivity. For use, the samples were dissolved in dimethyl sulfoxide (DMSO). In a control, triglycerides were synthesized using DMSO without any sample, with the production yield thereof given as 100.
The amount of the glyceride products synthesized was determined as follows. After completion of synthesis, the cells were suspended in PBS (phosphate-buffer-saline) to remove the substrate [^14C]acetate, whether unabsorbed into the cells or remaining unreacted, and total lipids, including triglycerides, were extracted twice for 30 min with 0.5 ml of an extraction solvent mixture (hexane:isopropanol=3:2, v:v). 1 ml of the extract was concentrated with nitrogen gas.
The total lipid residue thus formed was dissolved in an organic solvent mixture (chloroform:methanol=2:1) and loaded dropwise onto a thin layer chromatography plate (TLC; silica gel 60F254, 0.5 mm, Merck) using a mixture of 80:20:1 hexane:diethylether:acetic acid (v:v:v) as a developing solvent. After the separation of triglycerides (Rf value: 0.4) on TLC, the plate was brought into contact with an autoradiographic film for three hours, followed by image analysis (BAS-1500, Fuji Photo Film Co. Ltd.) to determine the [^14C] radioactivity of the triglycerides. The cells left after the extraction were suspended in 0.3 ml of a 0.1 N sodium hydroxide solution to measure the cellular protein concentration thereof.
The empirical values were obtained by dividing triglyceride radioactivity by protein level, with correction for experimental errors between test groups.

[1] = tested on: ICR mice fed a high-fat diet; assay: In vivo assay for anti-obesity activity in mice fed a high-fat diet; design: species or system mouse
Procedure: Also, the derivatives of Chemical Formula 1 were tested for resistance to obesity by iterative oral administration at a dose of 10 mg/kg into ICR male mice (refer to Example 3). […] When they were administered, the levels of total triglycerides, total cholesterols, and low density lipoprotein (LDL)-cholesterol in the blood recovered to almost normal levels, with a significant increase observed in the level of high density lipoprotein (HDL)-cholesterol in the blood (refer to Tables 6 and 7 and FIGS. 3 and 4).
In order to verify the anti-obesity activity of the benzaldehyde derivatives of Chemical Formula 1 in accordance with the present invention, Compounds 22 and 31 were administered repetitively into rodents as follows.
The experimental animals were 6 week old ICR mice which were purchased from Japan SLC, Inc. via Central Lab. Animal Inc. Korea. They were acclimated to a new environment for one week before use, and fed with a foodstuff commercially available from Deyts, U.S.A. They were bred in an animal lab set at a temperature of 23±3° C. and RH 50±10% under light of 150˜300 Lux for a period of 12 hours (6 a.m.˜6 p.m.) with ventilation 10-20 times/hour. All of the 12 mice used were male, and were organized into two groups of 6. The test group was orally administered once a day at 4 p.m. with 10 mg/kg of the compound (Chemical Formula 1) in the form of a solution in biological saline for 35 days while the control was administered with biological saline only. Xenical, a commercially available lipase inhibitor, was administered orally at a dose of 10 mg/kg once a day as a positive control drug.
The animals were measured for body weight every week and sacrificed on Day 35, after which blood from the heart was sampled. Abdominal fat, epididymal fat, retroperitoneal fat and the liver were excised and weighed. Blood samples were assayed for total triglyceride, total cholesterol, HDL-cholesterol and LDL-cholesterol using respective test kits, all commercially available from Asan Pharmaceutical Co. Ltd., Korea.
For evidence of anti-obesity activity, compounds 22 and 31 were orally administered at regular intervals at a dose of 10 mg/kg into ICR male mice for a predetermined period of time with the concurrent provision of conditional diets thereto. Anatomized abdomens of the animals are given in the photographs of FIG. 2.

[2] = Day 35, high-fat diet, 10 mg/kg oral, Mean ± SD
[3] = blood, Day 35, high-fat diet, 10 mg/kg oral, Mean ± SD

**Q.** `O=C(NCc1ccco1)c1ccc2oc(COc3ccc(C45CC6CC(CC(C6)C4)C5)cc3)nc2c1` [Cpd. 22, 2-(4-adamantan-1-yl-phenoxymethyl)-benzoxazole-5-carboxylic acid (furan-2-ylmethyl)-amide] was tested. Which “inhibition of the biosynthesis of triglycerides” value (DGAT; 10 μM) did it give?
**A.** 32.2%

**Q.** And the “Production Yield of Triglyceride (%)” value (DGAT; final level 10 μM, DMSO control given as 100)?
**A.** 67.8 ± 7.2%

**Q.** And the “abdominal fat increment (FIG. 2)” value ([1]; 10 mg/kg, compared to groups fed only the high-fat diet, final day)?
**A.** significantly decreased

**Q.** And the “(Tissue Weight/Body Weight) × 100 Abdominal Fat + Epididymal Fat” value [1, 2]?
**A.** 3.97 ± 0.72

**Q.** And the “(Tissue Weight/Body Weight) × 100 Liver” value [1, 2]?
**A.** 4.66 ± 0.65

**Q.** What about the “(Tissue Weight/Body Weight) × 100 Retroperitoneal Fat” value [1, 2] of the same compound?
**A.** 1.24 ± 1.31

**Q.** What about the “(Tissue Weight/Body Weight) × 100 Total Fat” value [1, 2] of the same compound?
**A.** 5.24 ± 0.91

**Q.** And the “HDL-Cholesterol” value [1, 3]?
**A.** 21.66 ± 2.16 mg/dL

**Q.** What about the “LDL-Cholesterol” value [1, 3] of the same compound?
**A.** 37.57 ± 15.14 mg/dL

**Q.** And the “Total Cholesterol” value [1, 3]?
**A.** 68.89 ± 14.95 mg/dL

**Q.** And the “Total Triglyceride” value [1, 3]?
**A.** 48.33 ± 9.83 mg/dL

**Q.** And the “inhibition of body weight gain” value ([1]; high-fat diet, 10 mg/kg oral once a day for 35 days)?
**A.** 68%

**Q.** What about the “Body Weight (g) (Mean ± SD) Week 0” value ([1]; high-fat diet, 10 mg/kg oral once a day, Week 0) of the same compound?
**A.** 26.30 ± 1.27 g

**Q.** And the “Body Weight (g) (Mean ± SD) Week 1” value ([1]; high-fat diet, 10 mg/kg oral once a day, Week 1)?
**A.** 34.75 ± 1.75 g

**Q.** And the “Body Weight (g) (Mean ± SD) Week 2” value ([1]; high-fat diet, 10 mg/kg oral once a day, Week 2)?
**A.** 37.94 ± 2.33 g

**Q.** What about the “Body Weight (g) (Mean ± SD) Week 3” value ([1]; high-fat diet, 10 mg/kg oral once a day, Week 3) of the same compound?
**A.** 40.34 ± 3.39 g

**Q.** What about the “Body Weight (g) (Mean ± SD) Week 4” value ([1]; high-fat diet, 10 mg/kg oral once a day, Week 4) of the same compound?
**A.** 42.48 ± 2.90 g

**Q.** And the “Body Weight (g) (Mean ± SD) Week 5” value ([1]; high-fat diet, 10 mg/kg oral once a day, Week 5)?
**A.** 43.90 ± 1.20 g
